The values that follow are results of earlier work, collected in paper PMC6720825, “Thiol-ene "Click" Synthesis and Pharmacological Evaluation of C-Glycoside sp^2-Iminosugar Glycolipids” (Molecules, 2019).

A word on the GI50: it is the concentration that inhibits growth by half. One may read the EC50 as the concentration giving half of the maximal effect.

The test system of series [1] is T-47D, breast. The arrangement: method as in doi:10.1039/C5RA02627J. The conditions noted are these: Figure 1; cited from earlier work.
Series [2] concerns intracellular amastigotes of Leishmania donovani (amastigotes HU3). The arrangement: method as in doi:10.1039/C5RA02627J. The settings on record: intracellular amastigotes of Leishmania donovani; cited from earlier work.

Molecules are shown by their SMILES.

With `CCCCCCCCCCCCS[C@@H]1[C@H](O)[C@@H](O)[C@@H](O)[C@H]2COC(=O)N21` [DS-OGJ], in series [1], the GI50 was 18 µM. Also, the concentration giving a half-maximal response (EC50) in series [2] is 15.5 µM.
